Literature values as cited in patent US8657943B2, “1-hydroxy-2-O-acyl-sn-glycero-3-phosphocholine compounds, preparation process, antifouling composition, process for its preparation, method to prevent fouling, method to turn a surface into an antifouling surface, and, covered surface” (UFRJ, IEAPM, UFF, priority 2010, dated 2014).

How the values were obtained:
different cell types = conditions: very low concentrations
mussels = conditions: concentrations of up to 100 ng/L in seawater
Ostrea edulis = conditions: 75 days exposure, 0.24 μg/L

Row | Substance | concentrations that trigger physiological responses (different cell types) | effect on the growth of mussels (mussels) | larval production (Ostrea edulis) | sex change male to female (Ostrea edulis)
1 | 1-O-alkyl-2-acetyl-sn-glycero-3-phosphocholine [platelet activating factor] | 10^−12 to 10^−9 M |  |  | 
2 | tri-butyl tin [TBT] |  | significant reductions in the growth of mussels | completely inhibited | a delay in changing sex male to female was observed
